Values quoted from earlier work, collected in patent US20250331549A1, “AEROSOL-GENERATING ARTICLE WITH AVERSIVE AGENT” (PHILIP MORRIS PRODUCTS S.A., priority 2022, published 2025).
Where a name gives a salt, the structure may show the parent alone. Read-outs that look alike come from different tables or passages of the source.

[1] = reciprocal of the dilution that still has a bitter taste, known bittering agents, Table 1
[2] = quinine hydrochloride value is the set reference, denatonium benzoate value is estimated

| Molecule | Bitterness value [1] | Bitterness value [2] |
| --- | --- | --- |
| CC1=C[C@H]2[C@H]3[C@H](C(C)=C4[C@H]5OC(=O)[C@@H](C)[C@@H]5CC[C@](C)(O)[C@@H]43)[C@@]13[C@@H]2[C@@](C)(O)CC[C@H]1[C@H](C)C(=O)O[C@@H]13 [Absinthin, absinthin] | 3,000,000 |  |
| C[C@@]12C[C@@H](c3ccoc3)OC(=O)[C@@H]1CC[C@]1(C)[C@H]2[C@@H]2C=C[C@@]1(O)C(=O)O2 [Columbin, columbin] | 60,000,000 |  |
| CC[N+](CC)(CC(=O)Nc1c(C)cccc1C)Cc1ccccc1 [Denatonium benzoate, denatonium benzoate] | >100,000,000 | over 100,000,000 |
| COC1=C[C@@H](C)[C@@H]2C[C@H]3OC(=O)C[C@H]4C(C)=C(OC)C(=O)[C@H]([C@@]2(C)C1=O)[C@@]34C [Quassin, quassin] | 13,000,000 |  |
| C=C[C@H]1C[N@@]2CC[C@H]1C[C@H]2[C@H](O)c1ccnc2ccc(OC)cc12 [Quinine hydrochloride, quinine hydrochloride, reference compound] | 200,000 | 200,000 |
| amarogentin | 58,000,000 |  |
